Experimental data published in patent publication US12552793B2, “Purine derivative and medical use thereof” (KANGBAIDA (SICHUAN) BIOTECHNOLOGY CO., LTD., priority 2019, dated 2026).

The compounds below were run against T1, DNA-PK kinase (Homo sapiens (Human), UniProt P78527) (assay: biochemical).
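Also: enzyme inhibition of DNA-PK with kinase activity read out by chemiluminescence on a microplate reader after adding a kinase detection reagent.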
Protocol: Inhibition of DNA-PK Kinase
The inhibitory activity of the compounds against DNA-PK kinase was determined using a DNA-PK kinase assay kit (purchased from Promega, Cat. No. V4107, Batch No. 0000366495). The results were quantified using chemiluminescence, specifically as follows: • i. ADP-fluorescence standard curves at different concentrations were constructed according to the instructions of the kit; • ii. reaction systems (5 L) were prepared in a 384-well white plate; 1 μL of a compound (concentration gradients 1 μM, 200 nM, 40 nM, 8 nM, 1.6 nM, 0.32 nM, 0.064 nM and 0.013 nM were set for each compound), 20 units of DNA-PK kinase, 0.2 μg/μL substrate, 10 μg/μL DNA, 50 μM ATP and 1% DMSO were successively added to each well; • iii. the mixtures were well mixed, centrifuged (1000 rpm, 30 s), and incubated at 37° C. for 60 min; • iv. the reactions were terminated by adding 5 μL of ADP-Glo™ Reagent; the mixtures were well mixed, centrifuged (1000 rpm, 30 s), and incubated at room temperature for 40 min; • v. 10 μL of Kinase Detection Reagent was added; the mixtures were well mixed by shaking, centrifuged (1000 rpm, 30 s), and incubated at room temperature for 30 min; • vi. fluorescence values were measured using a microplate reader (Thermo fisher, Varioskan LUX). IC50 was calculated using GraphPad Prism 8.

IC50 [nM] | SMILES
1.1 | CNC(=O)c1cc(C)c(Nc2ncc3c(n2)n(C24CC5CC(CC(O)(C5)C2)C4)c(=O)n3C)cn1 [Compound 15, 5-((9-(3-Hydroxyadamantan-1-yl)-7-methyl-8-oxo-8,9-dihydro-7H-purin-2-yl)amino)-N,4-dimethylpicolinamide]
0.13 | Cc1cc2ncnn2cc1Nc1ncc2c(n1)n(C13CC4CC(C1)C(O)C(C4)C3)c(=O)n2C (stereo not drawn) [Compound 18-2, 9-(4-Hydroxyadamantan-1-yl)-7-methyl-2-((7-methyl-[1,2,4]triazolo[1,5-a]pyridin-6-yl)amino)-7,9-dihydro-8H-purin-8-one]

What follows are compounds tested against T1, DNA-PK kinase (assay: not given).

SMILES | IC50 [nM]
Cc1cc(C(N)=O)c(F)cc1Nc1ncc2c(n1)n(C1C3CC4CC1CC(O)(C4)C3)c(=O)n2C (single isomer, unassigned) [2-Fluoro-4-((9-(5-hydroxyadamantan-2-yl)-7-methyl-8-oxo-8,9-dihydro-7H-purin-2-yl)amino)-5-methylbenzamide] | 0.48
Cc1cc2ncccc2cc1Nc1ncc2c(n1)n(C13CC4CC(CC(O)(C4)C1)C3)c(=O)n2C [Compound 2, 9-(3-Hydroxyadamantan-1-yl)-7-methyl-2-((7-methylquinolin-6-yl)amino)-7,9-dihydro-8H-purin-8-one] | 0.01
Cc1cc2ncnn2cc1Nc1ncc2c(n1)n(C13CC4CC(CC(C(=O)OC(C)(C)C)(C4)C1)C3)c(=O)n2C [Compound 3, tert-Butyl-3-(7-methyl-2-[(7-methyl-[1,2,4]triazolo[1,5-a]pyridin-6-yl)amino]-8-oxo-8,9-dihydro-7H-purin-9-yl)adamantane-1-carboxylate] | 14.9
Cc1cc2ncnn2cc1Nc1ncc2c(n1)n(C13CC4CC(CC(C(=O)O)(C4)C1)C3)c(=O)n2C [Compound 4, 3-(7-Methyl-2-((7-methyl-[1,2,4]triazolo[1,5-a]pyridin-6-yl)amino)-8-oxo-7,8-dihydro-9H-purin-9-yl)adamantane-1-carboxylic acid] | 0.45
Cc1cc2ncnn2cc1Nc1ncc2c(n1)n(C13CC4CC(CC(C(N)=O)(C4)C1)C3)c(=O)n2C [Compound 5, 3-(7-Methyl-2-[(7-methyl-[1,2,4]triazolo[1,5-a]pyridin-6-yl)amino]-8-oxo-8,9-dihydro-7H-purin-9-yl)adamantane-1-carboxamide] | 3.87
CCOC(=O)C12CC3CC(C1)CC(n1c(=O)n(C)c4cnc(Nc5cn6ncnc6cc5C)nc41)(C3)C2 [Compound 7, Ethyl-3-(7-methyl-2-[(7-methyl-[1,2,4]triazolo[1,5-a]pyridin-6-yl)amino]-8-oxo-8,9-dihydro-7H-purin-9-yl)adamantane-1-carboxylate] | 0.01
Cc1cc2ncnn2cc1Nc1ncc2c(n1)n(C13CC4CC(CC(CO)(C4)C1)C3)c(=O)n2C [Compound 8, 7-Methyl-2-[(7-methyl-[1,2,4]triazolo[1,5-a]pyridin-6-yl)amino]-9-[3-(hydroxymethyl)adamantan-1-yl]-8,9-dihydro-7H-purin-8-one] | 0.01
Cc1cc2ncnn2cc1Nc1ncc2c(n1)n(C13CC4CC(CC(C(=O)N5CCOCC5)(C4)C1)C3)c(=O)n2C [Compound 9, 7-Methyl-2-[(7-methyl-[1,2,4]triazolo[1,5-a]pyridin-6-yl)amino]-9-[3-(morpholine-4-carbonyl)adamantan-1-yl]-8,9-dihydro-7H-purin-8-one] | 1.1
Cc1cc2ncnn2cc1Nc1ncc2c(n1)n(C13CC4CC(CC(N)(C4)C1)C3)c(=O)n2C [Compound 10, 7-Methyl-2-[(7-methyl-[1,2,4]triazolo[1,5-a]pyridin-6-yl)amino]-9-[3-aminoadamantan-1-yl]-8,9-dihydro-7H-purin-8-one] | 2.26
COC12CC3CC(C1)CC(n1c(=O)n(C)c4cnc(Nc5cn6ncnc6cc5C)nc41)(C3)C2 [Compound 11, 9-(3-Methoxyadamantan-1-yl)-7-methyl-2-((7-methyl-[1,2,4]triazolo[1,5-a]pyridin-6-yl)amino)-7,9-dihydro-8H-purin-8-one] | 0.1
Cc1cc2ncnn2cc1Nc1ncc2c(n1)n(C13CC4CC(C1)C(=O)C(C4)C3)c(=O)n2C [Compound 19, 7-Methyl-2-((7-methyl-[1,2,4]triazolo[1,5-a]pyridin-6-yl)amino)-9-(4-oxoadamantan-1-yl)-7,9-dihydro-8H-purin-8-one] | 0.03
Cc1cc(C(N)=O)c(F)cc1Nc1ncc2c(n1)n(C13CC4CC(CC(O)(C4)C1)C3)c(=O)n2C [Compound 22, 2-Fluoro-4-((9-(3-hydroxyadamantan-1-yl)-7-methyl-8-oxo-8,9-dihydro-7H-purin-2-yl)amino)-5-methylbenzamide] | 0.01
Cc1cc(C(N)=O)c(F)cc1Nc1ncc2c(n1)n(C13CC4CC(C1)C(=O)C(C4)C3)c(=O)n2C [Compound 25, 2-Fluoro-5-methyl-4-((7-methyl-8-oxo-9-(4-oxoadamantan-1-yl)-8,9-dihydro-7H-purin-2-yl)amino)benzamide] | 0.01
Cc1cc2c(cc1Nc1ncc3c(n1)n(C14CC5CC(C1)C(=O)C(C5)C4)c(=O)n3C)CCO2 [Compound 30, 7-Methyl-2-((6-methyl-2,3-dihydrobenzofuran-5-yl)amino)-9-(4-oxoadamantan-1-yl)-7,9-dihydro-8H-purin-8-one] | 0.08
COC1(OC)C2CC3CC1CC(n1c(=O)n(C)c4cnc(Nc5cc6c(cc5C)OCC6)nc41)(C3)C2 [Compound 31, 9-(4,4-Dimethoxyadamantan-1-yl)-7-methyl-2-((6-methyl-2,3-dihydrobenzofuran-5-yl)amino)-7,9-dihydro-8H-purin-8-one] | 0.1
Cc1cc2c(cc1Nc1ncc3c(n1)n(C14CC5CC(CC(O)(C5)C1)C4)c(=O)n3C)CCO2 [Compound 32, 9-(3-Hydroxyadamantan-1-yl)-7-methyl-2-((6-methyl-2,3-dihydrobenzofuran-5-yl)amino)-7,9-dihydro-8H-purin-8-one] | 2.3
Cn1c(=O)n(C23CC4CC(CC(O)(C4)C2)C3)c2nc(Nc3cc4c(cc3Cl)OCC4)ncc21 [Compound 33, 2-((6-Chloro-2,3-dihydrobenzofuran-5-yl)amino)-9-(3-hydroxyadamantan-1-yl)-7-methyl-7,9-dihydro-8H-purin-8-one] | 6.4
Cc1cc(C(N)=O)c(F)cc1Nc1ncc2c(n1)n(C13CC4CC(CC(C#N)(C4)C1)C3)c(=O)n2C [Compound 34, 4-((9-(3-Cyanoadamantan-1-yl)-7-methyl-8-oxo-8,9-dihydro-7H-purin-2-yl)amino)-2-fluoro-5-methylbenzamide] | 7.5
Cc1cc2ncnn2cc1Nc1ncc2[nH]c(=O)n(C34CC5CC(CC(O)(C5)C3)C4)c2n1 [Compound 36, 9-(3-Hydroxyadamantan-1-yl)-2-((7-methyl-[1,2,4]triazolo[1,5-a]pyridin-6-yl)amino)-7,9-dihydro-8H-purin-8-one] | 0.32

The remaining lines, values ahead:

IC50 [nM] | SMILES
0.68 | Cc1cc(C#N)ccc1Nc1ncc2c(n1)n(C1C3CC4CC1CC(O)(C4)C3)c(=O)n2C (single isomer, unassigned) [Compound 13-1, 4-((9-(5-Hydroxyadamantan-2-yl)-7-methyl-8-oxo-8,9-dihydro-7H-purin-2-yl)amino)-3-methylbenzonitrile]
51.9 | Cc1cc(C#N)ccc1Nc1ncc2c(n1)n(C1C3CC4CC1CC(O)(C4)C3)c(=O)n2C (single isomer, unassigned) [Compound 13-2, 4-((9-(5-Hydroxyadamantan-2-yl)-7-methyl-8-oxo-8,9-dihydro-7H-purin-2-yl)amino)-3-methylbenzonitrile]
0.01 | Cc1cc2ncnn2cc1Nc1ncc2c(n1)n(C13CC4CC(C1)C(C#N)C(C4)C3)c(=O)n2C (single isomer, unassigned) [Compound 21-1, 5-(7-Methyl-2-((7-methyl-[1,2,4]triazolo[1,5-a]pyridin-6-yl)amino)-8-oxo-7,8-dihydro-9H-purin-9-yl)adamantane-2-carbonitrile]
0.1 | Cc1cc2ncnn2cc1Nc1ncc2c(n1)n(C13CC4CC(C1)C(C#N)C(C4)C3)c(=O)n2C (single isomer, unassigned) [Compound 21-2, 5-(7-Methyl-2-((7-methyl-[1,2,4]triazolo[1,5-a]pyridin-6-yl)amino)-8-oxo-7,8-dihydro-9H-purin-9-yl)adamantane-2-carbonitrile]
0.66 | Cc1cc(C(N)=O)c(F)cc1Nc1ncc2c(n1)n(C13CC4CC(C1)C(C#N)C(C4)C3)c(=O)n2C (single isomer, unassigned) [Compound 24-1, 4-((9-(4-Cyanoadamantan-1-yl)-7-methyl-8-oxo-8,9-dihydro-7H-purin-2-yl)amino)-2-fluoro-5-methylbenzamide]
8.39 | Cc1cc(C(N)=O)c(F)cc1Nc1ncc2c(n1)n(C13CC4CC(C1)C(C#N)C(C4)C3)c(=O)n2C (single isomer, unassigned) [Compound 24-2, 4-((9-(4-Cyanoadamantan-1-yl)-7-methyl-8-oxo-8,9-dihydro-7H-purin-2-yl)amino)-2-fluoro-5-methylbenzamide]
10.5 | Cc1cc(C(N)=O)c(F)cc1Nc1ncc2c(n1)n(C1C3CC4CC1CC(O)(C4)C3)c(=O)n2C (single isomer, unassigned) [Compound 27-1, 2-Fluoro-4-((9-(5-hydroxyadamantan-2-yl)-7-methyl-8-oxo-8,9-dihydro-7H-purin-2-yl)amino)-5-methylbenzamide]
0.75 | Cc1cc2ncnn2cc1Nc1ncc2c(n1)n(C1C3CC4CC1CC(C#N)(C4)C3)c(=O)n2C (single isomer, unassigned) [Compound 28-1, 4-(7-Methyl-2-((7-methyl-[1,2,4]triazolo[1,5-a]pyridin-6-yl)amino)-8-oxo-7,8-dihydro-9H-purin-9-yl)adamantane-1-carbonitrile]
0.1 | Cc1cc2ncnn2cc1Nc1ncc2c(n1)n(C1C3CC4CC1CC(C#N)(C4)C3)c(=O)n2C (single isomer, unassigned) [Compound 28-2, 4-(7-Methyl-2-((7-methyl-[1,2,4]triazolo[1,5-a]pyridin-6-yl)amino)-8-oxo-7,8-dihydro-9H-purin-9-yl)adamantane-1-carbonitrile]
